Data published in PMC11507523, “Development of Malate Biosensor-Containing Hydrogels and Living Cell-Based Sensors” (International Journal of Molecular Sciences, 2024).

Target: T1, CitT (Escherichia coli, UniProt P0AE74)
T1 construct: CitT co-expressed with Malon in E. coli BL21 cells
T1 sequence (P0AE74 1-487): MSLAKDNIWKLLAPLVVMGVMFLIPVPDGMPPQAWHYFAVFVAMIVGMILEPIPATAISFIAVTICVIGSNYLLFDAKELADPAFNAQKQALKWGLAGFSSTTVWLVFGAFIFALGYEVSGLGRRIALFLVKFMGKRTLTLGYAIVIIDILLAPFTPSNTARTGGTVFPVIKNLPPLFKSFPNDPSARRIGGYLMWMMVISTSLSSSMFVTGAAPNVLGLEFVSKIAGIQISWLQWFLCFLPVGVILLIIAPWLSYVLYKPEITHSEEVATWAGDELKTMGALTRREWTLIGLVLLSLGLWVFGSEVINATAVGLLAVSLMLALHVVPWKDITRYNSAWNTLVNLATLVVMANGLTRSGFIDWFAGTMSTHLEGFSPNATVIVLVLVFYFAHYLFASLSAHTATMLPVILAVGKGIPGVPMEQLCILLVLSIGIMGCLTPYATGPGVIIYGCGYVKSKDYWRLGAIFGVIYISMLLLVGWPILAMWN
Assay: CitT-dependent malate uptake in E. coli, Malon fluorescence by flow cytometry
Type: cell-based

SMILES: O=C(O)C[C@H](O)C(=O)O [malate]
- CitT-dependent malate uptake in E. coli, Malon fluorescence by flow cytometry: Without the CitT transporter, little to no change in fluorescence was observed upon addition of malate
